PMC10281575, “PfCRT mutations conferring piperaquine resistance in falciparum malaria shape the kinetics of quinoline drug binding and transport” (PLOS Pathogens, 2023)
Several values for one entry are separate records, joined by “and”; a condition that tells them apart may be missing. Equal values may be shown once.

Key:
water-injected oocytes = experiment: Radiolabeled drug uptake in water-injected control oocytes (intrinsic drug accumulation); format: cell-based, Xenopus laevis; details: pH 6.0, one value per biological replicate
Method: Adult female X. laevis frogs (purchased from NASCO) were anesthetized by submersion in a solution of 0.3% (w/v) 3-amino benzoate methanesulfonate for 15 min. Sections of the ovary were surgically removed and placed in Ca^2+-free ND96 buffer supplemented with 0.1% collagenase D (w/v; Roche), 0.5% BSA (w/v) and 9 mM Na2HPO4 at 18°C for 14–16 h while gently shaking. The oocytes were then washed several times with ND96 buffer (5 mM HEPES, pH 7.5, 96 mM NaCl, 2 mM KCl, 1.8 mM CaCl2, 1 mM MgCl2), supplemented with […] gentamycin. Healthy-looking stage V-VI oocytes were manually selected and randomly grouped for injection. A codon-optimized coding sequence of PfCRT was subcloned into the pSP64T expression vector and subsequently linearized using the restriction endonuclease BamHI or SalI (New England Biolabs GmbH). RNA for injection was transcribed in vitro using the mMESSAGE mMACHINE SP6 Transcription kit (Ambion), diluted with nuclease-free water to a final concentration of 0.6 μg/μL and stored at -80°C. RNA was injected using precision-bore glass capillary tubes (3.5-inch glass capillaries; Drummond Scientific Co.), which were pulled on a vertical puller (P-87 Flaming/Brown micropipette puller, Sutter Instrument Co.) and graduated. The micropipettes were connected to a microinjector (Nanoject II Auto-Nanoliter Injector, Drummond Scientific Co.). Injection was conducted under stereomicroscopic control. 50 nL of nuclease-free water alone (control oocytes) or 50 nL of nuclease-free water containing 30 ng of RNA was injected per oocyte. Injected oocytes were kept for 72 h at 18°C in ND96 buffer with two daily buffer changes before being used for further experiments.
Drug transport assays were performed as previously described. Briefly, measurements of radiolabeled drug uptake were made over 1 h, unless otherwise specified. […] Where specified, one or more unlabeled drugs were also present at the indicated concentrations. […] The uptake assays were terminated by removing the oocytes from the reaction medium and washing them three times with 2 mL of ice-cold ND96 buffer. Each oocyte was transferred to a separate scintillation vial and lysed by the addition of 200 μL of a 5% SDS solution. The radioactivity in the sample was measured using a liquid scintillation analyser Tri-Carb 4910 TR (PerkinElmer). Water-injected oocytes were analyzed in parallel as a negative control. The buffer from each condition was measured in duplicate in parallel to each experiment to transform counts per minute into pmol of drug. Drug uptake attributable to PfCRT was determined by subtracting the background uptake from water-injected oocytes from that of PfCRT-expressing oocytes. In all cases, at least three independent experiments were performed on oocytes from different frogs, and for each condition in an experiment, measurements were made from 10 oocytes per treatment.

PfCRT^Dd2_M343L = molecular target: T1, PfCRT^Dd2_M343L (Plasmodium falciparum, UniProt Q8IBZ9, A220S/I356T/K76T/M343L/M74I/N326S/N75E/Q271E/R371I); experiment: Verapamil inhibition of PfCRT-mediated CQ and PPQ transport in oocytes, PfCRT^Dd2_M343L; format: cell-based; details: individual replicates (S3 Fig)
T1 construct: expressed in transfected cells; host or cells: Xenopus laevis oocytes injected with in vitro transcribed RNA (pSP64T)
T1 sequence (Q8IBZ9 1-424 M74I/N75E/K76T/A220S/Q271E/N326S/M343L/I356T/R371I): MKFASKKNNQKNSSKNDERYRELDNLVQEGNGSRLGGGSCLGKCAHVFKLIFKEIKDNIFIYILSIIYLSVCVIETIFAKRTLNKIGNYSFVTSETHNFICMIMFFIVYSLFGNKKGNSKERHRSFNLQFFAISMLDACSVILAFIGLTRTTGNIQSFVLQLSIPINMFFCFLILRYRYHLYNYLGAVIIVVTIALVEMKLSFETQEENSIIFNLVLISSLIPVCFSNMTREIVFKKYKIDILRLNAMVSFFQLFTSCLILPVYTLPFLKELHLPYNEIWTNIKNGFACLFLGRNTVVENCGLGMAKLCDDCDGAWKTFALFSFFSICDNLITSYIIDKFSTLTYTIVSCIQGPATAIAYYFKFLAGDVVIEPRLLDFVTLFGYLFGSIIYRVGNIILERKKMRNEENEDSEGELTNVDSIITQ
Method: In all cases, the PfCRT-mediated CQ and PPQ transport was inhibited in the presence of 100 μM verapamil (S3 Fig).
Drug transport assays were performed as previously described. Briefly, measurements of radiolabeled drug uptake were made over 1 h, unless otherwise specified. […] Where specified, one or more unlabeled drugs were also present at the indicated concentrations. The direction of drug transport in the assays is from the extracellular medium (pH 6) into the oocyte cytosol (pH 7.2), which corresponds to the efflux of CQ or PPQ from the acidic digestive vacuole (pH 5.2) into the parasite cytosol (pH 7.2). The uptake assays were terminated by removing the oocytes from the reaction medium and washing them three times with 2 mL of ice-cold ND96 buffer. Each oocyte was transferred to a separate scintillation vial and lysed by the addition of 200 μL of a 5% SDS solution. The radioactivity in the sample was measured using a liquid scintillation analyser Tri-Carb 4910 TR (PerkinElmer). Water-injected oocytes were analyzed in parallel as a negative control. The buffer from each condition was measured in duplicate in parallel to each experiment to transform counts per minute into pmol of drug. Drug uptake attributable to PfCRT was determined by subtracting the background uptake from water-injected oocytes from that of PfCRT-expressing oocytes. In all cases, at least three independent experiments were performed on oocytes from different frogs, and for each condition in an experiment, measurements were made from 10 oocytes per treatment.
Supplementary file ppat.1011436.s006.tif: S3 Fig Verapamil inhibits PfCRT-mediated transport of CQ and PPQ. […] Left panels, data is shown as individual biological replicates (coloured symbols) overlaid onto bars representing the Mean ± S.E.M. (error bars). A one-tailed Student’s t-test was performed between untreated (no VP) and treated (+ 100 μM VP) samples, and the obtained p values are shown. Right panels, the uptake in VP-treated samples was divided by the uptake in their corresponding untreated pairs and subtracted from 100% to get the percentage of uptake inhibition mediated by the presence of 100 μM verapamil in the extracellular medium. Error bars are S.E. (TIF) Click here for additional data file.

| SMILES | water-injected PPQ uptake at 10 min (water-injected oocytes; 50 μM PPQ) | water-injected PPQ uptake at 30 min (water-injected oocytes; 50 μM PPQ) | water-injected PPQ uptake at 60 min (water-injected oocytes; 50 μM PPQ) | water-injected PPQ uptake at 90 min (water-injected oocytes; 50 μM PPQ) | water-injected PPQ uptake at 120 min (water-injected oocytes; 50 μM PPQ) | water-injected PPQ uptake at 180 min (water-injected oocytes; 50 μM PPQ) | PfCRTDd2_M343L-mediated PPQ transport (PfCRT^Dd2_M343L; 50 µM PPQ + 100 µM VP) | water-injected uptake of CQ at 10 min (water-injected oocytes; 50 μM CQ) | water-injected uptake of CQ at 30 min (water-injected oocytes; 50 μM CQ) | water-injected uptake of CQ at 60 min (water-injected oocytes; 50 μM CQ) | water-injected uptake of CQ at 90 min (water-injected oocytes; 50 μM CQ) | water-injected uptake of CQ at 120 min (water-injected oocytes; 50 μM CQ) | water-injected uptake of CQ at 180 min (water-injected oocytes; 50 μM CQ) | PfCRTDd2_M343L-mediated CQ transport (PfCRT^Dd2_M343L; 50 µM CQ + 100 µM VP) | PfCRTDd2_M343L-mediated CQ transport (PfCRT^Dd2_M343L; 50 µM CQ) |
| --- | --- | --- | --- | --- | --- | --- | --- | --- | --- | --- | --- | --- | --- | --- | --- |
| Clc1ccc2c(N3CCN(CCCN4CCN(c5ccnc6cc(Cl)ccc56)CC4)CC3)ccnc2c1 [PPQ, piperaquine] | 41.08 pmol oocyte-1 and 24.73 pmol oocyte-1 and 20.03 pmol oocyte-1 and 11.15 pmol oocyte-1 and 47.19 pmol oocyte-1 and 42.00 pmol oocyte-1 and 43.00 pmol oocyte-1 and 24.03 pmol oocyte-1 and 24.68 pmol oocyte-1 | 39.93 pmol oocyte-1 and 81.64 pmol oocyte-1 and 110.61 pmol oocyte-1 and 36.25 pmol oocyte-1 and 63.03 pmol oocyte-1 and 70.49 pmol oocyte-1 and 61.47 pmol oocyte-1 | 160.55 pmol oocyte-1 and 290.10 pmol oocyte-1 and 103.17 pmol oocyte-1 and 89.81 pmol oocyte-1 and 146.11 pmol oocyte-1 and 119.20 pmol oocyte-1 and 106.15 pmol oocyte-1 and 92.97 pmol oocyte-1 and 66.51 pmol oocyte-1 and 37.81 pmol oocyte-1 and 81.90 pmol oocyte-1 and 130.00 pmol oocyte-1 and 94.16 pmol oocyte-1 and 115.25 pmol oocyte-1 and 26.09 pmol oocyte-1 | 141.60 pmol oocyte-1 and 108.94 pmol oocyte-1 and 115.49 pmol oocyte-1 and 110.70 pmol oocyte-1 and 135.43 pmol oocyte-1 and 121.15 pmol oocyte-1 and 104.62 pmol oocyte-1 | 303.20 pmol oocyte-1 and 211.45 pmol oocyte-1 and 192.46 pmol oocyte-1 and 188.86 pmol oocyte-1 and 88.47 pmol oocyte-1 and 177.90 pmol oocyte-1 and 230.86 pmol oocyte-1 and 32.42 pmol oocyte-1 and 62.20 pmol oocyte-1 and 374.51 pmol oocyte-1 and 406.68 pmol oocyte-1 | 179.29 pmol oocyte-1 and 189.51 pmol oocyte-1 and 135.33 pmol oocyte-1 and 198.05 pmol oocyte-1 and 192.50 pmol oocyte-1 and 163.03 pmol oocyte-1 and 220.09 pmol oocyte-1 and 265.31 pmol oocyte-1 and 192.47 pmol oocyte-1 | 22.37 pmol oocyte-1 h-1 and 37.53 pmol oocyte-1 h-1 and 41.81 pmol oocyte-1 h-1 and 17.67 pmol oocyte-1 h-1 | – | – | – | – | – | – | – | – |
| CCN(CC)CCCC(C)Nc1ccnc2cc(Cl)ccc12 (stereo not drawn) [CQ, chloroquine] | – | – | – | – | – | – | – | 3.00 pmol oocyte-1 and 2.99 pmol oocyte-1 and 4.09 pmol oocyte-1 and 3.71 pmol oocyte-1 and 0.95 pmol oocyte-1 and 4.05 pmol oocyte-1 and 0.39 pmol oocyte-1 and 2.80 pmol oocyte-1 and 2.76 pmol oocyte-1 | 5.48 pmol oocyte-1 and 5.44 pmol oocyte-1 and 5.22 pmol oocyte-1 and 9.34 pmol oocyte-1 and 5.41 pmol oocyte-1 and 1.36 pmol oocyte-1 and 4.88 pmol oocyte-1 and 5.49 pmol oocyte-1 and 4.65 pmol oocyte-1 | 10.84 pmol oocyte-1 and 8.71 pmol oocyte-1 and 14.37 pmol oocyte-1 and 7.57 pmol oocyte-1 and 2.74 pmol oocyte-1 and 9.73 pmol oocyte-1 and 10.77 pmol oocyte-1 and 12.13 pmol oocyte-1 and 9.43 pmol oocyte-1 | 10.67 pmol oocyte-1 and 8.60 pmol oocyte-1 and 15.53 pmol oocyte-1 and 9.13 pmol oocyte-1 and 10.08 pmol oocyte-1 and 13.10 pmol oocyte-1 and 8.74 pmol oocyte-1 | 15.57 pmol oocyte-1 and 11.64 pmol oocyte-1 and 20.59 pmol oocyte-1 and 11.40 pmol oocyte-1 and 13.60 pmol oocyte-1 and 13.51 pmol oocyte-1 and 14.13 pmol oocyte-1 and 14.32 pmol oocyte-1 | 15.62 pmol oocyte-1 and 20.71 pmol oocyte-1 and 19.14 pmol oocyte-1 and 17.36 pmol oocyte-1 and 14.82 pmol oocyte-1 and 15.40 pmol oocyte-1 and 19.29 pmol oocyte-1 | 1.630 pmol oocyte-1 h-1 and 0.990 pmol oocyte-1 h-1 and 2.400 pmol oocyte-1 h-1 | 2.130 pmol oocyte-1 h-1 and 3.200 pmol oocyte-1 h-1 and 2.380 pmol oocyte-1 h-1 and 2.370 pmol oocyte-1 h-1 |
